Data taken from EP0906913A1, “Pteridinderivatives as NO synthase inhibitors” (Werner, Ernst, priority 1997, dated 1999).

Tests used:
[1] = target: T1, rekombinante, neuronale, Tetrahydrobiopterin-freie NO-Synthase (Rattus norvegicus, UniProt P29476); assay: Inhibition of recombinant neuronal tetrahydrobiopterin-free NO synthase ([3H]citrulline formation from [3H]arginine); format: biochemical; details: for NO-Synthase -Aktivität / inhibition at 0.01 µM / inhibition at 0.1 µM / inhibition at 1 µM / inhibition at 10 µM / inhibition at 100 µM / inhibition at 1000 µM: 10 µM Tetrahydrobiopterin, 10 min, 37°C; for inhibition at 0.01 µM / inhibition at 0.1 µM / inhibition at 1 µM / inhibition at 10 µM / inhibition at 100 µM / inhibition at 1000 µM: read-out: Hemmung
T1 construct: made in house
Experimental: Zum Nachweis der Wirkung der Hemmstoffe eignet sich z.B. rekombinante, neuronale, Tetrahydrobiopterin-freie NO-Synthase, welche nach der Methode von List et al. 1996 (Ref. 7) hergestellt wird. Die NO-Synthaseaktivität wird dabei in Abhängigkeit von der Zugabe des NO-Synthase-Hemmstoffes durch die Bildung von [2,3,4,5-^3H]Citrullin aus [2,3,4,5-^3H]Arginin nach der Methode von Mayer et al. (Ref. 8) bestimmt. Dazu wird in 0.1 ml folgendes Gemisch für 10 min bei 37°C inkubiert: 0.1 µg NO-Synthase, 0.1mM [2,3,4,5-^3H]-L-Arginin (ca. 60000 cpm), 0.5 mM CaCl2, 10 µg/ml Calmodulin, 0.2 mM NADPH (Nicotinamidadenindinukleotid, reduzierte Form), 10 µM Tetrahydrobiopterin, 0-1000 µM NO-Synthase-Inhibitor (z.B. H2aminobiopterin), 5 µM FAD (Flavinadenindinucleutid), 5 µM FMN (Flavinmononucleotid), und 0.2 mM CHAPS (3-[(3-cholamidopropyl)dimethyl-amonio]-1-propansulfonat). Die Reaktion wird durch Zugabe von 0.9 ml 20 mM Natriumacetatpuffer, pH = 5,5, der 1 mM L-Citrullin enthält, gestoppt. Das Gemisch wird anschließend auf Ionenaustauschersäulen, die mit dem Material DOWEX AG50W-X8 gefüllt sind, aufgetragen, und das Eluat sowie die Waschflüssigkeit (1 ml Wasser) werden aufgefangen. 7 ml Scintillationscocktail werden zugegeben und die Radioaktivität, die ein Maß für die NO-Synthaseaktivität ist, wird mit einem Szintillationszähler bestimmt. Tabelle I

[2] = test system: kultivierten, cytokin-stimulierten Mausfibroblasten; assay: Nitrite in supernatant of cultured cytokine-stimulated mouse fibroblasts (Griess reaction); format: cell-based, Maus; details: for inhibition at 2.5 µM / inhibition at 10 µM / inhibition at 25 µM / inhibition at 100 µM / inhibition at 250 µM: Fibroblast, read-out: Hemmung; for inhibition at 2.5 µM / inhibition at 10 µM / inhibition at 25 µM / inhibition at 100 µM / inhibition at 250 µM / Nitrit im Überstand: 96 h, Interferon-gamma, TNF-alpha, LPS stimulated
Experimental: Zum Nachweis der Wirksamkeit einer Verbindung der vorliegenden Erfindung an kultivierten Zellen wurden Mausfibroblasten nach Werner-Felmayer et al., (Ref. 9) gewonnen und in RPMI 1640 Medium (Schoeller Pharma, Wien, Österreich) mit 20% Hitze-inaktiviertem fötalem Kälberserum (Schoeller Pharma) in einer Dichte von 10^5 Zellen pro ml ausgesät und mit 50 U/ml Mäuse-Interferongamma, 100 U/ml Tumornekrose Faktor-Alpha und 1 µg/ml Lipopolysaccharid (E. coli B55:05) in Gegenwart verschiedener Konzentrationen von Hemmstoffen kultiviert. Nach 96 h im Brutschrank (100% Luftfeuchtigkeit, 37°C, 5% CO2) werden die Überstände gesammelt und mit der Griess-Reaktion auf ihren Gehalt an Nitrit, einem Abbauprodukt von NO, analysiert. Die folgende Tabelle 2 zeigt einen Vergleich von H2aminobiopterin (R1 = R3 = H, R2 = R4 = OH, R5 = CH3), H4aminobiopterin und Beispiel 72 aus DE 4418097: Tabelle 2

SMILES	NO-Synthase -Aktivität ([1]; inhibitor 0.01 µM) [nmol/mg/min]	inhibition at 0.01 µM ([1]; inhibitor 0.01 µM) [%]	NO-Synthase -Aktivität ([1]; inhibitor 0.1 µM) [nmol/mg/min]	inhibition at 0.1 µM ([1]; inhibitor 0.1 µM) [%]	NO-Synthase -Aktivität ([1]; inhibitor 1.0 µM) [nmol/mg/min]	inhibition at 1 µM ([1]; inhibitor 1.0 µM) [%]	NO-Synthase -Aktivität ([1]; inhibitor 10. µM) [nmol/mg/min]	inhibition at 10 µM ([1]; inhibitor 10. µM) [%]	NO-Synthase -Aktivität ([1]; inhibitor 100. µM) [nmol/mg/min]	inhibition at 100 µM ([1]; inhibitor 100. µM) [%]	NO-Synthase -Aktivität ([1]; inhibitor 1000. µM) [nmol/mg/min]	inhibition at 1000 µM ([1]; inhibitor 1000. µM) [%]	inhibition at 2.5 µM ([2]; inhibitor 2.5 µM) [%]	inhibition at 10 µM ([2]; inhibitor 10 µM) [%]	inhibition at 25 µM ([2]; inhibitor 25 µM) [%]	inhibition at 100 µM ([2]; inhibitor 100 µM) [%]	inhibition at 250 µM ([2]; inhibitor 250 µM) [%]	Nitrit im Überstand ([2]; inhibitor 2.5 µM) [µM]	Nitrit im Überstand ([2]; inhibitor 10 µM) [µM]	Nitrit im Überstand ([2]; inhibitor 25 µM) [µM]	also measured
C[C@H](O)[C@H](O)C1=Nc2c(N)nc(N)nc2NC1 [H2aminobiopterin, 2,4-diamino-7,8-dihydro-6(L-erythro-1,2-dihydroxylpropyl) pteridin]	294	0.3	283	4	242	18	110	64	48	83	25	92	35	78	99	100	100	6.2	2.1	0.1	Hemmung des Enzyms (Vergleich) ([1]; in words, compared with 6R-H4aminobiopterin): in der gleichen Größenordnung; Wirksamkeit am Enzym (Vergleich) ([1]; in words, compared with Beispiel 72 of DE 4418097): wesentlich wirksamer; Wirksamkeit an kultivierten Zellen (Vergleich) ([2]; in words, compared with previously known pteridine derivatives): deutlich wirksamer; Nitrit im Überstand ([2]; inhibitor 100 µM): 0.0 µM; Nitrit im Überstand ([2]; inhibitor 250 µM): 0.0 µM
C[C@H](O)[C@H](O)[C@H]1CNc2nc(N)nc(N)c2N1 [H4aminobiopterin, 2,4-Diamino-5,6,7,8-tetrahydro-6R-(L-erythro-1,2 dihydroxypropyl)pteridin, reference compound]	279	6	262	12	181	39	72	76	35	88	24	92	7	36	62	96	99	9.3	6.4	3.8	Nitrit im Überstand ([2]; inhibitor 100 µM): 0.4 µM; Nitrit im Überstand ([2]; inhibitor 250 µM): 0.02 µM
